From ChEMBL document CHEMBL1201862, “PubChem BioAssay data set” (2004)
Active and inactive are the calls of the source.

Columns and labels:
[1] = test system: Vero; test: West Nile virus antiviral activity, cell-based, CPE readout (AID 1621); assay type: functional; details: Chlorocebus sabaeus
[2] = test system: Vero; test: cytotoxicity of synthesized analogs in Vero cells, SAR follow-up, cytotoxicity control for West Nile virus antiviral project, cell-based, set II (AID 2402); assay type: functional; details: Chlorocebus sabaeus
[3] = test system: Vero; test: West Nile virus CPE inhibition, SAR follow-up, cell-based, synthesized analogs (AID 2238); assay type: functional; details: Chlorocebus sabaeus
[4] = test system: HEK293; test: cells; assay type: functional, cell-based; details: Homo sapiens
[5] = test system: HEK293; test: NOD2 signaling inhibitors in MDP-stimulated cells, cell-based, uHTS, luminescence (AID 2001); assay type: functional; details: Homo sapiens
[6] = test system: HEK293; test: cells; details: Homo sapiens
[7] = target: T1, Nucleotide-binding oligomerization domain-containing protein 1 (Homo sapiens, UniProt Q9Y239); test: NOD1 signaling inhibitors, SAR follow-up, revised (AID 2333); assay type: functional
T1 sequence (Q9Y239 whole entry): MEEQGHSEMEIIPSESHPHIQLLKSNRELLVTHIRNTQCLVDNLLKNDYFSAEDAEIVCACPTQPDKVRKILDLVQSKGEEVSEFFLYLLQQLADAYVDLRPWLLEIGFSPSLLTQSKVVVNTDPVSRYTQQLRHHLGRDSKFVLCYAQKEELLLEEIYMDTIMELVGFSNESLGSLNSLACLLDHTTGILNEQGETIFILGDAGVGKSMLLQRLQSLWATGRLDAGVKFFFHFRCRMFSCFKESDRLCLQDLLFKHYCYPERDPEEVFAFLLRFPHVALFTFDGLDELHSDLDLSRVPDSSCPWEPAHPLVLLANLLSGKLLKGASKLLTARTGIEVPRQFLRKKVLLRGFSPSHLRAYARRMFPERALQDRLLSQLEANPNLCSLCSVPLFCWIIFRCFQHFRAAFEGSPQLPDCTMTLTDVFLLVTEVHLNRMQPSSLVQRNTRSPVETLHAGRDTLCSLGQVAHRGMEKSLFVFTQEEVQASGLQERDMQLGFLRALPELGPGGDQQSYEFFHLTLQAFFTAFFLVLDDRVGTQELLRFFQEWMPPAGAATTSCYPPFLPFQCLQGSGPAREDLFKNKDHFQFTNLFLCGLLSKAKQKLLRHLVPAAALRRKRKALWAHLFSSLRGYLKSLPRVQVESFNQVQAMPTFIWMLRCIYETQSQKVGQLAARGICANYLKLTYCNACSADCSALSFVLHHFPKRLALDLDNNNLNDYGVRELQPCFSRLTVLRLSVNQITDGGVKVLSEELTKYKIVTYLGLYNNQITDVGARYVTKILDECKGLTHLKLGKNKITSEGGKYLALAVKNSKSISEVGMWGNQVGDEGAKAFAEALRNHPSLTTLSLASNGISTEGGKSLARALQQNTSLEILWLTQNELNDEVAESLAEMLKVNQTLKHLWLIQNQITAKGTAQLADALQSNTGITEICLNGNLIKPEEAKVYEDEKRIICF

[8] = target: Nucleotide-binding oligomerization domain-containing protein 2 (Homo sapiens, UniProt Q9HC29); test: NOD2 signaling inhibitors, cell-based, luminescence, uHTS, HEK293 (AID 1566); assay type: functional
Sequence of Nucleotide-binding oligomerization domain-containing protein 2 (Q9HC29 whole entry, the tested form may be a part): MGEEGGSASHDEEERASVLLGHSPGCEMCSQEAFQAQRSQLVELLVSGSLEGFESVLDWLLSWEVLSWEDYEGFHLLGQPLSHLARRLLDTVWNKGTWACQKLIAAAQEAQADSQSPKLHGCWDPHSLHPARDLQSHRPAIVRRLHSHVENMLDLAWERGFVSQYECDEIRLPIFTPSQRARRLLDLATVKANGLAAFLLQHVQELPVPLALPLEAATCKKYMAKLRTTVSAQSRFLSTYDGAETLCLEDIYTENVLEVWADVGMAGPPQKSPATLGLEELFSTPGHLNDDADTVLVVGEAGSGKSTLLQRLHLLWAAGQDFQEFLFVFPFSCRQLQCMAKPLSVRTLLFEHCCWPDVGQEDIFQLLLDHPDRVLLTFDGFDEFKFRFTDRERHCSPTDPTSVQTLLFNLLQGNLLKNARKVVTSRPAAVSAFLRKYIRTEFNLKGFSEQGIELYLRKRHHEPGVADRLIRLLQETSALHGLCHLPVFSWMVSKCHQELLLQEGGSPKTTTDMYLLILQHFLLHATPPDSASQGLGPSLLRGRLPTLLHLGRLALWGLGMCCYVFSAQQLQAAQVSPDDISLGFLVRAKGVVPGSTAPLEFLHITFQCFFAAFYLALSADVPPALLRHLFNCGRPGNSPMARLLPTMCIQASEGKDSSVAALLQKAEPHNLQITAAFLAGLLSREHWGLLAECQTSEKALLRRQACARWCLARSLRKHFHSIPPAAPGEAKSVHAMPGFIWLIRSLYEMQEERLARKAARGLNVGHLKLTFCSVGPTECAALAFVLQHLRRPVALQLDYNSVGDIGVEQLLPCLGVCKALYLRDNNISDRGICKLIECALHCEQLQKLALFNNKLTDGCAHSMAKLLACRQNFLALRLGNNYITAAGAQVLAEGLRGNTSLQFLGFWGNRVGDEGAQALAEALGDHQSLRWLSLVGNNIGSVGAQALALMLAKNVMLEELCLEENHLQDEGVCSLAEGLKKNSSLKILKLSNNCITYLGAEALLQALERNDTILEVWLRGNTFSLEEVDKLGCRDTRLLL

[9] = target: Tumor necrosis factor (Homo sapiens, UniProt P01375); test: TNFa-triggered NF-kB activation inhibitors, SAR follow-up, cell-based, revised (AID 2337); assay type: functional
[10] = test system: HEK293; test: NOD1 signaling inhibitors, primary screen, cell-based, luminescence, uHTS (AID 1578); assay type: functional; details: Homo sapiens
[11] = test system: HEK293; test: cells; assay type: functional, cell-based; details: Homo sapiens; remark: listed apart in the source
[12] = test system: HEK293; test: cells; assay type: functional, cell-based; details: Homo sapiens; remark: listed apart in the source
[13] = cells
[14] = cytotoxicity toward NIH3T3 fibroblasts, dose response, counter-screen, cell-based, ATP luminescence, mouse fibroblasts (AID 2010); assay type: functional;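 note: cells exposed to compound for about 90 hours before reading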
[15] = inhibitors of intracellular T. cruzi replication, confirmation, NIH3T3 host cells, beta-gal luminescence (AID 2044); assay type: functional, cell-based;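 note: intracellular parasites grown in NIH/3T3 mouse fibroblasts as host cells; luminescent beta-galactosidase reporter signal from transgenic T. cruzi replicating inside host cells; inhibitors lower the luminescence signal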
[16] = StAR promoter reporter inhibition counter-screen, dose response, counter-screen for LRH-1 inverse agonist project, cell-based, luminescence, luciferase reporter (AID 651969); assay type: functional
[17] = target: Steroidogenic factor 1 (Homo sapiens, UniProt Q13285); test: Counterscreen for inverse agonists of the liver receptor homolog-1 (LRH-1; NR5A2): Luminescence-based cell-based high throughput dose response assay to identify inverse agonists of the Steroidogenic Factor 1 Nuclear Receptor (SF1; NR5A1).; assay type: functional
Sequence of Steroidogenic factor 1 (Q13285 whole entry): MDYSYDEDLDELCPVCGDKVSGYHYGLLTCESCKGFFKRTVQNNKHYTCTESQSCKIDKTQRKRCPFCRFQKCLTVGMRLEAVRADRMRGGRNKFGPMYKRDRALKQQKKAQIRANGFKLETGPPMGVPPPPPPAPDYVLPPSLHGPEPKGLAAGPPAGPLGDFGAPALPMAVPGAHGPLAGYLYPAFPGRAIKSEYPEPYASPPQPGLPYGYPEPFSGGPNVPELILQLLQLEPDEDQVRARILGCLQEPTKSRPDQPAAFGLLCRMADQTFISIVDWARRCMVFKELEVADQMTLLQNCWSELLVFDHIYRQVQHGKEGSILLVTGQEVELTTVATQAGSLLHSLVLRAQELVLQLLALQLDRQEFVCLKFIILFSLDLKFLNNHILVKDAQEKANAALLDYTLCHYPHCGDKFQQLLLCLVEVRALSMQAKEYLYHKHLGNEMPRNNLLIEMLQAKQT

[18] = cells; assay type: functional
[19] = microbe, parasite or virus in culture; assay type: functional; details: Mycobacterium tuberculosis
[20] = target: Nuclear receptor subfamily 5 group A member 2 (Homo sapiens, UniProt O00482); assay type: functional, cell-based;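 note: HEK293T cells transfected with LRH-1 and a StAR promoter luciferase reporter; potency for inhibitors that lower LRH-1 driven reporter light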
Sequence of Nuclear receptor subfamily 5 group A member 2 (O00482 whole entry): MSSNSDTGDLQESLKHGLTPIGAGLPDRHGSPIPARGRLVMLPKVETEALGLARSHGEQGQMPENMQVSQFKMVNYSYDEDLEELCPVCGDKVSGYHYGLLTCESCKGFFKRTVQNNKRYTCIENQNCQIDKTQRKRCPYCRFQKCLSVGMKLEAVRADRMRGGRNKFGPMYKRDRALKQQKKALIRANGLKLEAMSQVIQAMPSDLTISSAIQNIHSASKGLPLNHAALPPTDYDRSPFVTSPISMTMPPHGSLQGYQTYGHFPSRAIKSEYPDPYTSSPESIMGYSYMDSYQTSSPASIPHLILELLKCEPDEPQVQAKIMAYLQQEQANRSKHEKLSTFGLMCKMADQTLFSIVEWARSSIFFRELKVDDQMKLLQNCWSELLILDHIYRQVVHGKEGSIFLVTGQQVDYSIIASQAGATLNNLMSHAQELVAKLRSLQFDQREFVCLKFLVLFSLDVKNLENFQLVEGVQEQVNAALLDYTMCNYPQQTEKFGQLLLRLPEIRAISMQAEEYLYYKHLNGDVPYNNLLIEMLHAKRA

[21] = THP-1 cell cytotoxicity, dose response, cytotoxicity control for non-replicating M. tuberculosis project (AID 489025); assay type: functional
[22] = Vero E6 cell cytotoxicity, dose response, cytotoxicity control for non-replicating M. tuberculosis project, secondary assay (AID 492998); assay type: functional, VeroE6; details: Vero C1008
[23] = target: Beta-galactosidase (Escherichia coli, UniProt Q8VNN2); test: beta-galactosidase enzyme inhibitors and activators, dose response, artefact control for CCR6 antagonist project, biochemical, E. coli enzyme, set 3 (AID 504712); assay type: functional
Sequence of Beta-galactosidase (Q8VNN2 whole entry): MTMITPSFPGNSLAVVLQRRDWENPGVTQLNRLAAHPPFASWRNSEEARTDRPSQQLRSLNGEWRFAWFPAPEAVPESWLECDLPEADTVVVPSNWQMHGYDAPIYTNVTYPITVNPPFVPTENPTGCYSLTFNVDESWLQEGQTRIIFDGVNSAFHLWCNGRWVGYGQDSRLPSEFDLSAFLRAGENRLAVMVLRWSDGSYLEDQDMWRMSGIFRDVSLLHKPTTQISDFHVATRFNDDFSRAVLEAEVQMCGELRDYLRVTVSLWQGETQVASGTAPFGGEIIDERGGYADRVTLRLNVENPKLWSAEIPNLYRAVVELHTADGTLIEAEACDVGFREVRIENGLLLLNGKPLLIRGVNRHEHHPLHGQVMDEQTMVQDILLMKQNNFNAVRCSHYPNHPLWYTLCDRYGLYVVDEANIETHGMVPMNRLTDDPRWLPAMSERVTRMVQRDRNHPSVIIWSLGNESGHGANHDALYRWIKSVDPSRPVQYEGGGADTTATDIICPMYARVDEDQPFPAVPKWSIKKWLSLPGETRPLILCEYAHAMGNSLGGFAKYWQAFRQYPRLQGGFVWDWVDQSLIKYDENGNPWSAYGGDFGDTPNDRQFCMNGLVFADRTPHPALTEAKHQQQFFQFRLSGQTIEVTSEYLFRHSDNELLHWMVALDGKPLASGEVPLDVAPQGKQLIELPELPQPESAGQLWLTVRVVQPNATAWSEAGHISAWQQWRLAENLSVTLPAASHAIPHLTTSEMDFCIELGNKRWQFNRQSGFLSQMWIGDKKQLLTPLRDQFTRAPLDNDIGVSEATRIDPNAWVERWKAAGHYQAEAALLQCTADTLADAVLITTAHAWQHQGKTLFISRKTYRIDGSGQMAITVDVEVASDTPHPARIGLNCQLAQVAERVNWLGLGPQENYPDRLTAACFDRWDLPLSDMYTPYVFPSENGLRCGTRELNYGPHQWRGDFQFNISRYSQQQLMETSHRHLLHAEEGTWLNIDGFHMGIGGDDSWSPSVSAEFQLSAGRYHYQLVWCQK

[24] = Luminescence Cell-Based Dose Retest to Confirm Inhibitors of Cancer Stem Cells. [Related pubchem assays (depositor defined):AID2717, AID2721]; assay type: functional; details: Homo sapiens
[25] = target: T2, CAAX prenyl protease 2 (Saccharomyces cerevisiae S288c, UniProt Q03530); assay type: biochemical
T2 sequence (Q03530 whole entry): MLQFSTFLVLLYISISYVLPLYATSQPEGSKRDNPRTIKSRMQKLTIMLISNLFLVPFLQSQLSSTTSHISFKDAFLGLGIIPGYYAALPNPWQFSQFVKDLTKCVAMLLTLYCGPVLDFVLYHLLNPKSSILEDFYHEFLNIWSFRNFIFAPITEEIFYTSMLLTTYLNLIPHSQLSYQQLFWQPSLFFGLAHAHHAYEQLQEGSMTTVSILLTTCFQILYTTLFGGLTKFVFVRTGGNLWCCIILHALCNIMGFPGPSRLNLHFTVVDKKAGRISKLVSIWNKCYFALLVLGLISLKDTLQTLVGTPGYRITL

[26] = target: Trypsin (Sus scrofa, UniProt P00761); test: porcine trypsin inhibitors, dose response, selectivity assay for Rce1 protease inhibitor project, biochemical, quenched peptide fluorescence, cherry-pick (AID 488789)
Sequence of Trypsin (P00761 whole entry): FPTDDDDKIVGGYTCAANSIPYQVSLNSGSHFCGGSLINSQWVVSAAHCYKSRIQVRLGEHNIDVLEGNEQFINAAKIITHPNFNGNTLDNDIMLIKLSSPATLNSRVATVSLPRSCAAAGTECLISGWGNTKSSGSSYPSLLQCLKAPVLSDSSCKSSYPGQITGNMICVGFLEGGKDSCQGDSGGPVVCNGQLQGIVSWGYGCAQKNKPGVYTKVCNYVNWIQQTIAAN

[27] = target: Glucose-6-phosphate 1-dehydrogenase (Homo sapiens, UniProt P11413); test: human G6PD enzyme inhibitors, dose response, selectivity assay for P. falciparum G6PD inhibitor project, biochemical, fluorescence (AID 504792); assay type: functional
Sequence of Glucose-6-phosphate 1-dehydrogenase (P11413 whole entry): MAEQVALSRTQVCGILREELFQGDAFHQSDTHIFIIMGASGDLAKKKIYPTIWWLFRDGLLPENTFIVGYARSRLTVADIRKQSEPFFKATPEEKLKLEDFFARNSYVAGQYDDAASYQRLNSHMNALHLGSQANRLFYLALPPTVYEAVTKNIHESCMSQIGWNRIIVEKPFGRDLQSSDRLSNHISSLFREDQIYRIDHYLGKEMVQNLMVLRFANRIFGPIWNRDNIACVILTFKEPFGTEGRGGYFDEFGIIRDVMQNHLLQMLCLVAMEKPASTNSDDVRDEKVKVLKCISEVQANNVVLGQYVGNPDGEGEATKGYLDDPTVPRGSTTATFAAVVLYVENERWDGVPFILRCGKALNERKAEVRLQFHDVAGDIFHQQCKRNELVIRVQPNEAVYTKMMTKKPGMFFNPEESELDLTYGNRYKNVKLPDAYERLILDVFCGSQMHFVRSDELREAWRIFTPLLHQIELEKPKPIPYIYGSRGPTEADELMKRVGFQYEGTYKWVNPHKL

[28] = THP-1 cell cytotoxicity, dose response, cytotoxicity control for Vif-APOBEC3G degradation inhibitor project, THP-1 cells (AID 1117359); assay type: functional; details: Human immunodeficiency virus 1, THP-1
[29] = target: T3, Hexokinase HKDC1 (Homo sapiens, UniProt Q2TB90); test: HKDC1 hexokinase inhibitors, dose response, biochemical, W721R variant (AID 504729); assay type: functional
T3 sequence (Q2TB90 whole entry): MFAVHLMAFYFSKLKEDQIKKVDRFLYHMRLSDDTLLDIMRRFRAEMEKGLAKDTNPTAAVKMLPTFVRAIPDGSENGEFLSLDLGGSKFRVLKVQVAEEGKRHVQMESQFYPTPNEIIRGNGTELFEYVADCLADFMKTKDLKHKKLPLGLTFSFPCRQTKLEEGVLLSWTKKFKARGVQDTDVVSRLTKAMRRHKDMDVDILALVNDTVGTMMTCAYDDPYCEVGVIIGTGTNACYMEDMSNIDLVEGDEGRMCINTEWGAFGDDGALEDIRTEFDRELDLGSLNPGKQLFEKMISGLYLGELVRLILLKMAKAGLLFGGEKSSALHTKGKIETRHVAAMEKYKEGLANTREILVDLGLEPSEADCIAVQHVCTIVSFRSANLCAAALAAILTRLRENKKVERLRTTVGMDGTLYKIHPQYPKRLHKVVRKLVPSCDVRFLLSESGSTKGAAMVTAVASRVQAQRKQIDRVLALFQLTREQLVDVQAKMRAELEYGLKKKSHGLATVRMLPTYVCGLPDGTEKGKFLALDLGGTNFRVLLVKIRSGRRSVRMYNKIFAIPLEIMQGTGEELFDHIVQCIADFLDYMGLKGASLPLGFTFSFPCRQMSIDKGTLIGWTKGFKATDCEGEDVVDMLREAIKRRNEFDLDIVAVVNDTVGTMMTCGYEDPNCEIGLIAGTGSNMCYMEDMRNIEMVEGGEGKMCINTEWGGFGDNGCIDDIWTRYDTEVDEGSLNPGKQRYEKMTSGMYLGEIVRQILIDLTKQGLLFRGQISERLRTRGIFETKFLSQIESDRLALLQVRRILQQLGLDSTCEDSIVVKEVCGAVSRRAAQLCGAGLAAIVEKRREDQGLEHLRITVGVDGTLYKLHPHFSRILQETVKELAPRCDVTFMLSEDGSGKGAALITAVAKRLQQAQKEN

[30] = target: Genome polyprotein (dengue virus type 2, UniProt P29990); test: Dengue-2 NS5 methyltransferase inhibitors, primary screen, biochemical, confirmation dose response (AID 588689); assay type: functional
Sequence of Genome polyprotein (P29990 2492-3391 limits assumed): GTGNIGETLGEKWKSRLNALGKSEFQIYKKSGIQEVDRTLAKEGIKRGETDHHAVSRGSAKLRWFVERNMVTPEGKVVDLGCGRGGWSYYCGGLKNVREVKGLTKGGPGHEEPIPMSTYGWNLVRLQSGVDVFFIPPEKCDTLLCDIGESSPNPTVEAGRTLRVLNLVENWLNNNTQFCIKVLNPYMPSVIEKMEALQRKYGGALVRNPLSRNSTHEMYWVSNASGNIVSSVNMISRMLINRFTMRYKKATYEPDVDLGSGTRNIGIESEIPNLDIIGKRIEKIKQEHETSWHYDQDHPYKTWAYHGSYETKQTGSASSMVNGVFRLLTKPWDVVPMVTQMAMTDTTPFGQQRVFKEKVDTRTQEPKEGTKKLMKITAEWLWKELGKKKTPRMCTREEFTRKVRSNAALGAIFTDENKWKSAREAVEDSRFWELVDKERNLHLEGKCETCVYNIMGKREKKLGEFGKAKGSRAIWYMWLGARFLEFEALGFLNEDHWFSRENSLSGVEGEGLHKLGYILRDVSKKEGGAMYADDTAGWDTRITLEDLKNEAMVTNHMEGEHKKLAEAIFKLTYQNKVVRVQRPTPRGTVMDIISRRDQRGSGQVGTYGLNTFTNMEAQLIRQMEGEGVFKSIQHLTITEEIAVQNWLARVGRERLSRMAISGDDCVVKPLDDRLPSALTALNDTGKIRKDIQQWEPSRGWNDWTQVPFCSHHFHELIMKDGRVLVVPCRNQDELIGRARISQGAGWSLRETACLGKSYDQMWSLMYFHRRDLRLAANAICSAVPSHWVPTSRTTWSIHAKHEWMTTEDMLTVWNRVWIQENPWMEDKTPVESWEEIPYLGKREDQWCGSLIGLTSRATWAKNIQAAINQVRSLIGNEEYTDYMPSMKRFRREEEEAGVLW

[31] = target: G-protein coupled receptor 55 (Homo sapiens, UniProt Q9Y2T6); test: GPR55 agonists via beta-arrestin recruitment, primary screen, imaging, U2OS cells, beta-arrestin-GFP redistribution (AID 1961); assay type: functional
Sequence of G-protein coupled receptor 55 (Q9Y2T6 whole entry): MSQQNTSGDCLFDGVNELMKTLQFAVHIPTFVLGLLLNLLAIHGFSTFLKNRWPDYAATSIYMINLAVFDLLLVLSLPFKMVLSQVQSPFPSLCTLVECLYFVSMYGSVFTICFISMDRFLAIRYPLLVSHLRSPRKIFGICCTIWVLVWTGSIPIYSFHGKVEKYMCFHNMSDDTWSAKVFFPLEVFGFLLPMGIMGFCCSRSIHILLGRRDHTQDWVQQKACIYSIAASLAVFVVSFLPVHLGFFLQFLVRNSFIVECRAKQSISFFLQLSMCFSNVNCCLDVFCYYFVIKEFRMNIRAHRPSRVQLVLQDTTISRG

[32] = target: T4, Microphthalmia-associated transcription factor (Homo sapiens, UniProt O75030); test: TRPM1 promoter luciferase signal decrease, dose response, MITF inhibitor project, cell-based, SK-MEL-5, cherry-picked, set 3 (AID 493073); assay type: functional
T4 sequence (O75030 whole entry): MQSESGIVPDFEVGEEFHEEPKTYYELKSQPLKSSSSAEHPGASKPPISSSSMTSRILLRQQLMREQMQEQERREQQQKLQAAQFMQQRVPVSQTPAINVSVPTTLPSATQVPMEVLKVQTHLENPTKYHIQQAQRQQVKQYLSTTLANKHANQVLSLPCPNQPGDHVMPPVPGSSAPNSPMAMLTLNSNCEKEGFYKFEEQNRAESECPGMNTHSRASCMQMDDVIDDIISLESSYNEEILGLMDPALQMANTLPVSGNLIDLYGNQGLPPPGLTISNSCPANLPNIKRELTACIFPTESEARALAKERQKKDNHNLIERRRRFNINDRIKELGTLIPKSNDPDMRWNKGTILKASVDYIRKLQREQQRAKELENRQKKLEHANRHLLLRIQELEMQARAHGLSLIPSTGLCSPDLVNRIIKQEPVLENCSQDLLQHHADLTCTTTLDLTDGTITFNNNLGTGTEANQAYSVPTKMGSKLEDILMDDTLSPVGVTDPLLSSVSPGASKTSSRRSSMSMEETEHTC

[33] = test system: BJ; test: cells; assay type: functional, cell-based; details: Homo sapiens
[34] = test system: BJ; test: cytotoxicity toward BJ-TERT-LT-ST fibroblasts, dose response, cell-based, RAS-independent, luminescence (AID 1935); assay type: functional; details: Homo sapiens;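 note: BJ fibroblasts immortalized with TERT plus LT and ST oncogenes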
[35] = cytotoxicity toward DRD oncogenic fibroblasts, dose response, cell-based, non-viral oncogenic, luminescence (AID 1934); assay type: functional; details: Homo sapiens
[36] = test system: BJ; test: cytotoxicity toward BJ-TERT fibroblasts, dose response, cell-based, RAS-independent, luminescence (AID 1933); assay type: functional; details: Homo sapiens

## O=C(CSc1nc2ccccc2c(=O)n1-c1ccc(F)cc1F)Nc1ccc(N2CCOCC2)cc1
[1]
  IC50: 26.7 µM (active)
[2]
  CC50: > 200 µM (active)
[3]
  IC50: 38.1 µM (active)

## Cc1cccc(-n2ncc3c2CCCC3NC(=O)C2(C(N)=O)CC2)c1C (centres undefined)
[4]
  IC50: > 20 µM (inactive)
[5]
  IC50: 16.2 µM (inactive)
[6]
  IC50: > 20 µM (inactive)
[7]
  IC50: 4.31 µM (active)
[8]
  EC50: 19.7 µM (active)
[9]
  IC50: 14.5 µM (active)
[10]
  EC50: 2.53 µM (active)
[11]
  IC50: 9.93 µM (active)
[12]
  IC50: > 20 µM (inactive)

## Cc1onc(-c2c(F)cccc2Cl)c1C(=O)ON=C(N)c1ccc([N+](=O)[O-])o1
[13]
  EC50: 0.015 µM (active)
[14]
  EC50: 12.7 µM (active)
[15]
  EC50: < 0.1 µM (active)
[16]
  IC50: 35.9 µM (inactive)
[17]
  IC50: 0.143 µM (active)
[18]
  IC50: 4.6 µM (active)
[19]
  CC50: 21.2 µM (active)
[20]
  IC50: 0.143 µM (active)
[21]
  CC50: 17.8 µM (active)
[22]
  CC50: > 20 µM (active)

## Cc1ccc(C(NC(=O)C(C)C)c2cc([N+](=O)[O-])c3cccnc3c2O)cc1 (centres undefined)
[23]
  IC50: > 66.6 µM (inactive)
[24]
  AC50: 1.02 µM (active)

## Cc1cc(-c2ccccc2)n2nc(C)c(C#N)c2n1
[25]
  AC50: 15.5 µM (active)
[26]
  AC50: 3.3 µM (active)

## COC1=C(OC)C(=O)C(Sc2ccc3ccccc3c2)=CC1=O
[23]
  IC50: > 66.6 µM (inactive)
[27]
  IC50: 18.7 µM (active)
[28]
  CC50: > 40 µM (active)
[29]
  IC50: 3.33 µM (active)
[30]
  IC50: 5.09 µM (active)

## O=C1NC(=O)N(Cc2ccccc2)C(=O)/C1=C/C=C/c1ccco1
[4]
  IC50: > 20 µM (inactive)
[24]
  AC50: 1.47 µM (active)
[31]
  EC50: > 32 µM (inactive)
[32]
  AC50: 4.85 µM (active)
[5]
  IC50: > 20 µM (inactive)
[33]
  EC50: 8.18 µM (active)
[8]
  EC50: > 20 µM (inactive)
[34]
  EC50: 4.14 µM (active)
[35]
  EC50: 5.85 µM (inconclusive)
[10]
  EC50: > 20 µM (inactive)
[11]
  IC50: 17.5 µM (active)
[12]
  IC50: > 20 µM (inactive)
[36]
  EC50: 5.74 µM (inconclusive)
